Numbers after ± are expanded uncertainties.
Test: activity coefficient (dimensionless); of the first substance listed, at infinite dilution; xn = mol fraction of the nth substance listed
Conditions: 101 kPa, Liquid, Chromatography, x1 = 0

Q: With ClCCl [dichloromethane] + CCCCCCn1cc[n+](C)c1.O=C([O-])C(F)(F)F as the compound, how does the activity coefficient (303.15 K) read?
A: 0.64 ± 0.07

Q: And the activity coefficient (313.15 K)?
A: 0.65 ± 0.07

Q: And the activity coefficient (323.15 K)?
A: 0.67 ± 0.07

Q: What about the activity coefficient (333.15 K) of the same compound?
A: 0.68 ± 0.07

Q: And the activity coefficient (343.15 K)?
A: 0.7 ± 0.07

Q: What about the activity coefficient (353.15 K) of the same compound?
A: 0.72 ± 0.08

Q: And the activity coefficient (363.15 K)?
A: 0.73 ± 0.08

Q: What does the source list for CCO [ethanol] + CCCCCCn1cc[n+](C)c1.O=C([O-])C(F)(F)F?
A: activity coefficient (303.15 K): 0.21 ± 0.03; activity coefficient (313.15 K): 0.22 ± 0.03; activity coefficient (323.15 K): 0.22 ± 0.03; activity coefficient (333.15 K): 0.23 ± 0.04; activity coefficient (343.15 K): 0.24 ± 0.04; activity coefficient (353.15 K): 0.26 ± 0.04; activity coefficient (363.15 K): 0.27 ± 0.04

Q: With CCOC(C)=O [ethyl acetate] + CCCCCCn1cc[n+](C)c1.O=C([O-])C(F)(F)F as the compound, how does the activity coefficient (303.15 K) read?
A: 2.64 ± 0.28

Q: What about the activity coefficient (313.15 K) of the same compound?
A: 2.8 ± 0.29

Q: What about the activity coefficient (323.15 K) of the same compound?
A: 2.91 ± 0.31

Q: What about the activity coefficient (333.15 K) of the same compound?
A: 3.02 ± 0.32

Q: What about the activity coefficient (343.15 K) of the same compound?
A: 3.12 ± 0.33

Q: And the activity coefficient (353.15 K)?
A: 3.15 ± 0.33

Q: What about the activity coefficient (363.15 K) of the same compound?
A: 3.44 ± 0.36

Q: For CCc1ccccc1 [ethylbenzene] + CCCCCCn1cc[n+](C)c1.O=C([O-])C(F)(F)F, which activity coefficient (303.15 K) is on record?
A: 4.1 ± 0.43

Q: And the activity coefficient (313.15 K)?
A: 4.16 ± 0.44

Q: And the activity coefficient (323.15 K)?
A: 4.22 ± 0.44

Q: And the activity coefficient (333.15 K)?
A: 4.25 ± 0.45

Q: What about the activity coefficient (343.15 K) of the same compound?
A: 4.32 ± 0.45

Q: What about the activity coefficient (353.15 K) of the same compound?
A: 4.34 ± 0.46

Q: What about the activity coefficient (363.15 K) of the same compound?
A: 4.36 ± 0.46

Q: For CCCCCCC [heptane] + CCCCCCn1cc[n+](C)c1.O=C([O-])C(F)(F)F, which activity coefficient (323.15 K) is on record?
A: 27 ± 2.8

Q: With CCCCCC [hexane] + CCCCCCn1cc[n+](C)c1.O=C([O-])C(F)(F)F as the compound, how does the activity coefficient (323.15 K) read?
A: 29 ± 3

Q: With CO [methanol] + CCCCCCn1cc[n+](C)c1.O=C([O-])C(F)(F)F as the compound, how does the activity coefficient (303.15 K) read?
A: 0.1 ± 0.03

Q: And the activity coefficient (313.15 K)?
A: 0.11 ± 0.03

Q: And the activity coefficient (323.15 K)?
A: 0.12 ± 0.03

Q: And the activity coefficient (333.15 K)?
A: 0.13 ± 0.03

Q: What about the activity coefficient (343.15 K) of the same compound?
A: 0.13 ± 0.03

Q: And the activity coefficient (353.15 K)?
A: 0.16 ± 0.03

Q: What about the activity coefficient (363.15 K) of the same compound?
A: 0.16 ± 0.03

Q: For CC1CCCCC1 [methylcyclohexane] + CCCCCCn1cc[n+](C)c1.O=C([O-])C(F)(F)F, which activity coefficient (323.15 K) is on record?
A: 19.8 ± 2.1

Q: Which activity coefficient (323.15 K) does the source give for CCCCCCCCC [nonane] + CCCCCCn1cc[n+](C)c1.O=C([O-])C(F)(F)F here?
A: 64.2 ± 6.8

Q: For CCCCCCCC [octane] + CCCCCCn1cc[n+](C)c1.O=C([O-])C(F)(F)F, which activity coefficient (323.15 K) is on record?
A: 49.6 ± 5.2

Q: What does the source list for CCCO [propan-1-ol] + CCCCCCn1cc[n+](C)c1.O=C([O-])C(F)(F)F?
A: activity coefficient (313.15 K): 0.24 ± 0.04; activity coefficient (323.15 K): 0.25 ± 0.04; activity coefficient (333.15 K): 0.26 ± 0.04; activity coefficient (343.15 K): 0.27 ± 0.04; activity coefficient (353.15 K): 0.29 ± 0.04; activity coefficient (363.15 K): 0.31 ± 0.04

Q: For CC(C)O [propan-2-ol] + CCCCCCn1cc[n+](C)c1.O=C([O-])C(F)(F)F, which activity coefficient (303.15 K) is on record?
A: 0.34 ± 0.04

Q: What about the activity coefficient (313.15 K) of the same compound?
A: 0.35 ± 0.04

Q: And the activity coefficient (323.15 K)?
A: 0.36 ± 0.04

Q: What about the activity coefficient (333.15 K) of the same compound?
A: 0.38 ± 0.05

Q: And the activity coefficient (343.15 K)?
A: 0.39 ± 0.05

Q: What about the activity coefficient (353.15 K) of the same compound?
A: 0.4 ± 0.05

Q: And the activity coefficient (363.15 K)?
A: 0.42 ± 0.05

Q: With C=Cc1ccccc1 [styrene] + CCCCCCn1cc[n+](C)c1.O=C([O-])C(F)(F)F as the compound, how does the activity coefficient (303.15 K) read?
A: 2.28 ± 0.24

Q: And the activity coefficient (313.15 K)?
A: 2.39 ± 0.25

Q: What about the activity coefficient (323.15 K) of the same compound?
A: 2.46 ± 0.26

Q: What about the activity coefficient (333.15 K) of the same compound?
A: 2.53 ± 0.27

Q: And the activity coefficient (343.15 K)?
A: 2.61 ± 0.27

Q: What about the activity coefficient (353.15 K) of the same compound?
A: 2.68 ± 0.28

Q: And the activity coefficient (363.15 K)?
A: 2.73 ± 0.29

Q: With ClC(Cl)(Cl)Cl [tetrachloromethane] + CCCCCCn1cc[n+](C)c1.O=C([O-])C(F)(F)F as the compound, how does the activity coefficient (303.15 K) read?
A: 0.62 ± 0.07

Q: What about the activity coefficient (313.15 K) of the same compound?
A: 0.7 ± 0.07

Q: And the activity coefficient (323.15 K)?
A: 0.8 ± 0.08

Q: What about the activity coefficient (333.15 K) of the same compound?
A: 0.91 ± 0.09

Q: What about the activity coefficient (343.15 K) of the same compound?
A: 1.02 ± 0.1

Q: And the activity coefficient (353.15 K)?
A: 1.19 ± 0.12

Q: What about the activity coefficient (363.15 K) of the same compound?
A: 1.32 ± 0.14

Q: With C1CCOC1 [tetrahydrofuran] + CCCCCCn1cc[n+](C)c1.O=C([O-])C(F)(F)F as the compound, how does the activity coefficient (303.15 K) read?
A: 1.95 ± 0.2

Q: And the activity coefficient (313.15 K)?
A: 1.96 ± 0.21

Q: What about the activity coefficient (323.15 K) of the same compound?
A: 1.98 ± 0.21

Q: What about the activity coefficient (333.15 K) of the same compound?
A: 2 ± 0.21

Q: And the activity coefficient (343.15 K)?
A: 2.02 ± 0.21

Q: What about the activity coefficient (353.15 K) of the same compound?
A: 2.02 ± 0.21

Q: What about the activity coefficient (363.15 K) of the same compound?
A: 2.05 ± 0.22

Q: What does the source list for Cc1ccccc1 [toluene] + CCCCCCn1cc[n+](C)c1.O=C([O-])C(F)(F)F?
A: activity coefficient (303.15 K): 2.97 ± 0.31; activity coefficient (313.15 K): 3.02 ± 0.32; activity coefficient (323.15 K): 3.06 ± 0.32; activity coefficient (333.15 K): 3.1 ± 0.33; activity coefficient (343.15 K): 3.14 ± 0.33; activity coefficient (353.15 K): 3.17 ± 0.33; activity coefficient (363.15 K): 3.2 ± 0.34

Q: For ClC(Cl)Cl [trichloromethane] + CCCCCCn1cc[n+](C)c1.O=C([O-])C(F)(F)F, which activity coefficient (303.15 K) is on record?
A: 0.08 ± 0.03

Q: And the activity coefficient (313.15 K)?
A: 0.12 ± 0.03

Q: And the activity coefficient (323.15 K)?
A: 0.22 ± 0.03

Q: And the activity coefficient (333.15 K)?
A: 0.3 ± 0.04

Q: And the activity coefficient (343.15 K)?
A: 0.45 ± 0.05

Q: What about the activity coefficient (353.15 K) of the same compound?
A: 0.68 ± 0.07

Q: What about the activity coefficient (363.15 K) of the same compound?
A: 1.06 ± 0.11

From the NIST ThermoML archive (doi:10.1016/j.jct.2013.10.038)
